The experiment has as its system Mycobacterium tuberculosis. Nature of the experiment: Antimycobacterial activity against Mycobacterium tuberculosis H37Rv ATCC 27294 assessed as inhibition of microbial growth at 10 uM after 5 to 8 days by MABA method. It counts as functional. Particulars: read-out: GI. In general terms: The colour change of resazurin is a common sign of viable cells or microbes.

Turning to `COc1ccc(/C=C/C(=O)c2ccc(O)cc2O)cc1`, the inhibition of growth at 10 µM came to 58%.

Regarding `COc1ccc(-c2coc3ccc(Cl)cc3c2=O)cc1`, the inhibition of growth at 10 µM came out at 0%.

For the compound `O=c1c(-c2ccccc2)coc2ccccc12` [ISOFLAVONE], the inhibition of growth at 10 µM stood at 0%.

For the compound `COc1ccc(-c2coc3cc(O)ccc3c2=O)cc1OC` [CLADRIN], the inhibition of growth at 10 µM was 14%.

`N#Cc1ccc(-c2coc3cc(O)ccc3c2=O)cc1`: the inhibition of growth at 10 µM came out at 16%.

With `COc1ccc(-c2coc3ccc(O)cc3c2=O)cc1`, the inhibition of growth at 10 µM turned out to be 28%.

`COc1ccc(-c2coc3ccc(OC)cc3c2=O)cc1`: the inhibition of growth at 10 µM came out at 0%.

On to `COc1ccc(-c2coc3cc(O)ccc3c2=O)cc1` [FORMONONETIN], for which the inhibition of growth at 10 µM is 88%.

For `COc1ccc(-c2coc3cc(F)ccc3c2=O)cc1`, the inhibition of growth at 10 µM turned out to be 0%.

Regarding `COc1ccc(-c2cnoc2-c2ccc(O)cc2O)cc1`, the inhibition of growth at 10 µM was 15%.

For `O=c1c(-c2ccc(Cl)cc2)coc2cc(O)ccc12`, the inhibition of growth at 10 µM is 54%.

In the case of `COc1ccc(-c2coc3cc(O)ccc3c2=O)cc1F`, the inhibition of growth at 10 µM was determined as 13%.

Regarding `COc1ccc(-c2coc3ccc(F)cc3c2=O)cc1`, the inhibition of growth at 10 µM was found to be 0%.

With `COc1ccc(-c2coc3ccccc3c2=O)cc1`, the inhibition of growth at 10 µM amounted to 0%.

Turning to `COc1ccc(-c2coc3ccc(Br)cc3c2=O)cc1`, the inhibition of growth at 10 µM was found to be 5%.

Regarding `COc1ccc(-c2coc3ccc(C)cc3c2=O)cc1`, the inhibition of growth at 10 µM was found to be 7%.

In the case of `COc1ccc(-c2coc3cc(F)ccc3c2=O)cn1`, the inhibition of growth at 10 µM amounted to 2%.

Take `COc1ccc(-c2coc3cc(O)ccc3c2=O)cn1`: the inhibition of growth at 10 µM was 0%.

Turning to `COc1ccc(-c2coc3cc(O)ccc3c2=S)cc1`, the inhibition of growth at 10 µM is 4%.

As to `CC(C)(C)c1ccc(-c2coc3cc(O)ccc3c2=O)cc1`, the inhibition of growth at 10 µM worked out at 95%.

`COc1ccc(-c2c[nH]nc2-c2ccc(O)cc2O)cc1`: the inhibition of growth at 10 µM amounted to 40%.

Values taken from ChEMBL document CHEMBL3425506, “Synthesis, antimycobacterial evaluation and pharmacophore modeling of analogues of the natural product formononetin” (2015).
